These results are taken from patent publication US20190292155A1, “THERAPEUTIC INHIBITORY COMPOUNDS” (LifeSci Pharmaceuticals, Inc., priority 2016, published 2019).

The term IC50 denotes the concentration at which inhibition is half-maximal.

Structures are written as SMILES. A value given as a limit tells only on which side of the number the result lay.

In one test the target is T1, human complement factor D (Homo sapiens, UniProt P00746).
T1 construct: purchased R&D Systems 1824-SE
T1 sequence (P00746 26-253): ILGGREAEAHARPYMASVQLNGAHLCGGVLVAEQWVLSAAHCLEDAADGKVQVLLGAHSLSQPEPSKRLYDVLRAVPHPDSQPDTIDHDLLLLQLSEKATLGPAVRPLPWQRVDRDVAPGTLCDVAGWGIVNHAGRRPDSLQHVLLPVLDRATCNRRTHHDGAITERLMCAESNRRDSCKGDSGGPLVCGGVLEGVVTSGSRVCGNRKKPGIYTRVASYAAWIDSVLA
As to the kind of experiment: In vitro enzyme inhibition of human complement factor D (Z-Lys-SBzl/DTNB, A405). In kind it is biochemical.
Details: not given
The essentials: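 Buffer 50 mM Tris/HCl pH 7.5, 1 M NaCl, 0.5% final DMSO; compounds pre-incubated with enzyme 5 min at room temperature, then Z-Lys-SBzl with DTNB added (each diluted to 200 μM before addition).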
Consider `NC(=O)c1nn(CC(=O)N(CC(=O)NCc2cccc(Cl)c2F)C2CC2)c2cc(Cl)ccc12` [Example 85, 6-chloro-1-(2-((2-((3-chloro-2-fluorobenzyl)amino)-2-oxoethyl)(cyclopropyl)amino)-2-oxoethyl)-1H-indazole-3-carboxamide], for which the IC50 lay within 100 to 1000 nM.

Staying with this test, now noted: biochemical assay, substrate Z-Lys-SBzl; read-out: CFD IC50.
Consider `NC(=O)c1ccc2c(c1)c(C(N)=O)nn2CC(=O)N(CC(=O)NCc1cccc(Cl)c1F)C1CC1` [Example 93, 1-(2-((2-((3-chloro-2-fluorobenzyl)amino)-2-oxoethyl)(cyclopropyl)amino)-2-oxoethyl)-1H-indazole-3,5-dicarboxamide], for which the half-inhibitory concentration (IC50) lay within 100 to 1000 nM.
Same read-out and setting: as for `CCOC(=O)CC(C)N(CC(=O)NCc1cccc(Cl)c1F)C(=O)Cn1nc(C(N)=O)c2ccccc21` (stereo not drawn) [Example 72, ethyl 3-(2-(3-carbamoyl-1H-indazol-1-yl)-N-(2-((3-chloro-2-fluorobenzyl)amino)-2-oxoethyl)acetamido)butanoate], the figure is 100 to 1000 nM.
On the same count and under the same terms, the value for `NC(=O)c1nn(CC(=O)N(CC(=O)NCc2cccc(Cl)c2F)c2ccccc2)c2ccccc12` [Example 36, 1-(2-((2-((3-chloro-2-fluorobenzyl)amino)-2-oxoethyl)(phenyl)amino)-2-oxoethyl)-1H-indazole-3-carboxamide] was 1000 to 10000 nM.
Turning to `NC(=O)n1cc(NC(=O)N(CC(=O)NCc2cccc(Cl)c2F)C2CCNC2)c2ccccc21` (stereo not drawn) [Example 52, 3-(3-(2-((3-chloro-2-fluorobenzyl)amino)-2-oxoethyl)-3-(pyrrolidin-3-yl)ureido)-1H-indole-1-carboxamide], the IC50 was 100 to 1000 nM.
Turning to `NC(=O)c1nn(CC(=O)N(CC(=O)NCc2cccc(Cl)c2F)C2CC2)c2ccc(C(F)(F)F)cc12` [Example 95, 1-(2-((2-((3-chloro-2-fluorobenzyl)amino)-2-oxoethyl)(cyclopropyl)amino)-2-oxoethyl)-5-(trifluoromethyl)-1H-indazole-3-carboxamide], the IC50 was in the range of 1000 to 10000 nM.
With `CN(CC(=O)Nc1cccc(Cl)n1)C(=O)Cn1nc(C(N)=O)c2ccccc21` [Example 14, 1-(2-((2-((6-chloropyridin-2-yl)amino)-2-oxoethyl)(methyl)amino)-2-oxoethyl)-1H-indazole-3-carboxamide], the IC50 was 1000 to 10000 nM.
In the case of `COc1cccc(CNC(=O)CN(C(=O)Cn2nc(C(N)=O)c3ccccc32)C2CC2)c1F` [Example 122, 1-(2-(cyclopropyl(2-((2-fluoro-3-methoxybenzyl)amino)-2-oxoethyl)amino)-2-oxoethyl)-1H-indazole-3-carboxamide], the half-maximal inhibitory concentration (IC50) lay in the range of 1000 to 10000 nM.
Still for that read-out and setting: the value for `C[C@@H](C(=O)NCc1cccc(Cl)c1F)N(C(=O)Cn1nc(C(N)=O)c2ccccc21)C1CC1` [Example 39, (S)-1-(2-((1-((3-chloro-2-fluorobenzyl)amino)-1-oxopropan-2-yl)(cyclopropyl)amino)-2-oxoethyl)-1H-indazole-3-carboxamide] was over 10000 nM; that for `CC(=O)NCCN(CC(=O)Nc1cccc(Cl)n1)C(=O)Cn1nc(C(N)=O)c2ccccc21` [Example 24, 1-(2-((2-acetamidoethyl)(2-((6-chloropyridin-2-yl)amino)-2-oxoethyl)amino)-2-oxoethyl)-1H-indazole-3-carboxamide] was 1000 to 10000 nM; that for `NC(=O)c1nn(CC(=O)N(CC(=O)NCc2cccc(Cl)c2C2CC2)C2CC2)c2ccccc12` [Example 131, 1-(2-((2-((3-chloro-2-cyclopropylbenzyl)amino)-2-oxoethyl)(cyclopropyl)amino)-2-oxoethyl)-1H-indazole-3-carboxamide] was over 10000 nM.
The same measure, in the same setting: the value for `CCC(COC)N(CC(=O)NCc1cccc(Cl)c1F)C(=O)Cn1nc(C(N)=O)c2ccccc21` (stereo not drawn) [Example 61, 1-(2-((2-((3-chloro-2-fluorobenzyl)amino)-2-oxoethyl)(1-methoxybutan-2-yl)amino)-2-oxoethyl)-1H-indazole-3-carboxamide] was 1000 to 10000 nM; that for `NC(=O)c1nn(CC(=O)N(CC(=O)NCc2cc(F)cc(Cl)c2)C2CC2)c2ccccc12` [Example 103, 1-(2-((2-((3-chloro-5-fluorobenzyl)amino)-2-oxoethyl)(cyclopropyl)amino)-2-oxoethyl)-1H-indazole-3-carboxamide] was 100 to 1000 nM.
For the compound `NC(=O)CC(C1CC1)N(CC(=O)NCc1cccc(Cl)c1F)C(=O)Cn1nc(C(N)=O)c2ccccc21` (stereo not drawn) [Example 75, 1-(2-((3-amino-1-cyclopropyl-3-oxopropyl)(2-((3-chloro-2-fluorobenzyl)amino)-2-oxoethyl)amino)-2-oxoethyl)-1H-indazole-3-carboxamide], the IC50 lay within 1000 to 10000 nM.
Take `N#Cc1ccc2c(c1)c(C(N)=O)nn2CC(=O)N(CC(=O)NCc1cccc(Cl)c1F)C1CC1` [Example 92, 1-(2-((2-((3-chloro-2-fluorobenzyl)amino)-2-oxoethyl)(cyclopropyl)amino)-2-oxoethyl)-5-cyano-1H-indazole-3-carboxamide]: the IC50 was 100 to 1000 nM.
For the compound `NC(=O)c1nn(CC(=O)N(CC(=O)NCc2cccc(Cl)c2F)C2CC2)c2c(C(F)(F)F)cccc12` [Example 111, 1-(2-((2-((3-chloro-2-fluorobenzyl)amino)-2-oxoethyl)(cyclopropyl)amino)-2-oxoethyl)-7-(trifluoromethyl)-1H-indazole-3-carboxamide], the IC50 was under 100 nM.
In the case of `N#Cc1cc(Cl)c(F)c(CNC(=O)CN(C(=O)Cn2nc(C(N)=O)c3ccccc32)C2CC2)c1` [Example 90, 1-(2-((2-((3-chloro-5-cyano-2-fluorobenzyl)amino)-2-oxoethyl)(cyclopropyl)amino)-2-oxoethyl)-1H-indazole-3-carboxamide], the IC50 lay in the range of 1000 to 10000 nM.
Still for that read-out and setting: as for `COc1c(Cl)cccc1CNC(=O)CN(C(=O)Cn1nc(C(N)=O)c2ccccc21)C1CC1` [Example 116, 1-(2-((2-((3-chloro-2-methoxybenzyl)amino)-2-oxoethyl)(cyclopropyl)amino)-2-oxoethyl)-1H-indazole-3-carboxamide], the figure is 1000 to 10000 nM; as for `CC(CC(N)=O)N(CC(=O)NCc1cccc(Cl)c1F)C(=O)Cn1nc(C(N)=O)c2ccccc21` (stereo not drawn) [Example 76, 1-(2-((4-amino-4-oxobutan-2-yl)(2-((3-chloro-2-fluorobenzyl)amino)-2-oxoethyl)amino)-2-oxoethyl)-1H-indazole-3-carboxamide], 100 to 1000 nM.
For the compound `NC(=O)c1nn(CC(=O)N(CC(=O)NCc2cccc(Cl)c2F)C2CC2)c2c(F)cccc12` [Example 88, 1-(2-((2-((3-chloro-2-fluorobenzyl)amino)-2-oxoethyl)(cyclopropyl)amino)-2-oxoethyl)-7-fluoro-1H-indazole-3-carboxamide], the IC50 is 100 to 1000 nM.
As to `CC(=O)c1nc(CC(=O)N(CC(=O)NCc2cccc(Cl)c2F)C2CC2)n2ccccc12` [Example 48, 2-(1-acetylimidazo[1,5-a]pyridin-3-yl)-N-(2-((3-chloro-2-fluorobenzyl)amino)-2-oxoethyl)-N-cyclopropylacetamide], the half-maximal inhibitory concentration (IC50) lay within 100 to 1000 nM.
The same measure, in the same setting: as for `NC(=O)c1nn(CC(=O)N(CC(=O)NCc2cc(Cl)c3cn[nH]c3c2)C2CC2)c2ccccc12` [Example 102, 1-(2-((2-(((4-chloro-1H-indazol-6-yl)methyl)amino)-2-oxoethyl)(cyclopropyl)amino)-2-oxoethyl)-1H-indazole-3-carboxamide], the figure is 1000 to 10000 nM.
For `COc1ccc(CNC(=O)CN(C(=O)Cn2nc(C(N)=O)c3ccccc32)C2CC2)cc1Cl` [Example 125, 1-(2-((2-((3-chloro-4-methoxybenzyl)amino)-2-oxoethyl)(cyclopropyl)amino)-2-oxoethyl)-1H-indazole-3-carboxamide], the concentration for half-maximal inhibition (IC50) is 1000 to 10000 nM.
For `NC(=O)c1nn(CC(=O)N(CC(=O)NCc2cccc(Cl)c2F)C(CO)C2CC2)c2ccccc12` (stereo not drawn) [Example 69, 1-(2-((2-((3-chloro-2-fluorobenzyl)amino)-2-oxoethyl)(1-cyclopropyl-2-hydroxyethyl)amino)-2-oxoethyl)-1H-indazole-3-carboxamide], the IC50 lay within 1000 to 10000 nM.
For `NC(=O)c1nn(CC(=O)N(CC(=O)NCc2ccc(F)c(Cl)c2F)C2CC2)c2ccccc12` [Example 83, 1-(2-((2-((3-chloro-2,4-difluorobenzyl)amino)-2-oxoethyl)(cyclopropyl)amino)-2-oxoethyl)-1H-indazole-3-carboxamide], the half-inhibitory concentration (IC50) fell in the range of 100 to 1000 nM.
For the compound `NC(=O)c1nn(CC(=O)N(CC(=O)NCc2cccc(Cl)c2F)C2CC2)cc1Br` [Example 46, 4-bromo-1-(2-((2-((3-chloro-2-fluorobenzyl)amino)-2-oxoethyl)(cyclopropyl)amino)-2-oxoethyl)-1H-pyrazole-3-carboxamide], the half-maximal inhibitory concentration (IC50) was in the range of 1000 to 10000 nM.
For the compound `NC(=O)c1nn(CC(=O)N(CC(=O)Nc2cccc(Cl)n2)Cc2ccncc2)c2ccccc12` [Example 25, 1-(2-((2-((6-chloropyridin-2-yl)amino)-2-oxoethyl)(pyridin-4-ylmethyl)amino)-2-oxoethyl)-1H-indazole-3-carboxamide], the half-inhibitory concentration (IC50) was over 10000 nM.
Consider `NC(=O)c1cc(C(F)(F)F)n(CC(=O)N(CC(=O)NCc2cccc(Cl)c2F)C2CC2)n1` [Example 43, 1-(2-((2-((3-chloro-2-fluorobenzyl)amino)-2-oxoethyl)(cyclopropyl)amino)-2-oxoethyl)-5-(trifluoromethyl)-1H-pyrazole-3-carboxamide], for which the concentration for half-maximal inhibition (IC50) was over 10000 nM.
With `NC(=O)c1nn(CC(=O)N(CC(=O)NCc2cccc(Cl)c2F)C(CC(=O)O)C(F)(F)F)c2ccccc12` (stereo not drawn) [Example 79, 3-(2-(3-carbamoyl-1H-indazol-1-yl)-N-(2-((3-chloro-2-fluorobenzyl)amino)-2-oxoethyl)acetamido)-4,4,4-trifluorobutanoic acid], the half-inhibitory concentration (IC50) lay in the range of 1000 to 10000 nM.
Take `NC(=O)c1nn(CC(=O)N(CC(=O)NCc2cc(Cl)cc3ccoc23)C2CC2)c2ccccc12` [Example 110, 1-(2-((2-(((5-chlorobenzofuran-7-yl)methyl)amino)-2-oxoethyl)(cyclopropyl)amino)-2-oxoethyl)-1H-indazole-3-carboxamide]: the IC50 is 100 to 1000 nM.
